Among the test systems are U251 CNS; UACC-62 melanoma; MALME-3M melanoma; SN12C renal; NCI/ADR-RES ovarian; BT-549 breast; SW-620 colon; HOP-92 NSCLC; UO-31 renal; SR leukemia.
Holding throughout (experiment): NCI-60 cell line screen, 48 h

The structures appear in SMILES notation.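 1) Cells in 96-well plates. 2) Compound, 48 h, 5 concentrations. 3) Linear interpolation between surrounding doses. 4) Unreached endpoint = highest concentration. Here, GI50 denotes the concentration required for 50% inhibition of growth. The concentration for full growth arrest is given as TGI.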

Consider `CC(=O)c1ccc(NCN2C(=O)c3ccccc3C2=O)cc1`, for which the TGI with U251 CNS, in the assay with UACC-62 melanoma, with MALME-3M melanoma, with SN12C renal, with NCI/ADR-RES ovarian and with BT-549 breast was over 100 µM throughout. Moreover, the TGI in the assay on SW-620 colon, in the assay on HOP-92 NSCLC and in the assay with UO-31 renal was over 100 µM throughout.
For the compound `CC(C)Oc1ccc(C(=O)N[C@H](CNC(=O)CN(C)C)Cc2ccc(-c3cn4cccc([C@H](C)O)c4n3)cc2)cc1Cl`, the GI50 in the assay with U251 CNS is 0.0534 µM; with UACC-62 melanoma, 0.0706 µM; in the assay with MALME-3M melanoma, 0.078 µM; in the assay on SN12C renal, 0.0661 µM; in the assay on NCI/ADR-RES ovarian, 2.64 µM; in the assay with BT-549 breast, 0.068 µM. For the same compound, the GI50 in the assay on SW-620 colon is 0.0613 µM; with HOP-92 NSCLC, 11.2 µM; in the assay on UO-31 renal, 2.56 µM. Moreover, the TGI with U251 CNS is 19.2 µM; in the assay on UACC-62 melanoma, 24.3 µM; in the assay with MALME-3M melanoma it was 16.3 µM; in the assay on SN12C renal, 20.4 µM; in the assay on NCI/ADR-RES ovarian it was 19.8 µM; with BT-549 breast it was 17.6 µM. Moreover, the values for the TGI with SW-620 colon, in the assay with HOP-92 NSCLC and in the assay with UO-31 renal were 21.6 µM, 24.3 µM and 19.1 µM, respectively.
Take `Cn1c(=S)sc2nc3ccccc3n2c1=S`: the TGI in the assay with U251 CNS stood at 25.1 µM; with UACC-62 melanoma, 32.8 µM; with SR leukemia, 23.2 µM; with MALME-3M melanoma it was 31.2 µM; with SN12C renal it was 39.1 µM; in the assay on NCI/ADR-RES ovarian it was 44.8 µM. Moreover, the TGI in the assay with SW-620 colon was found to be 29.2 µM; in the assay with HOP-92 NSCLC it was 25.8 µM; in the assay with UO-31 renal, 18.8 µM.
On to `C[n+]1ccc(-c2c3nc(c(-c4ccc5c(ccc[n+]5C)c4)c4ccc([nH]4)c(-c4cc[n+](C)cc4)c4nc(c(-c5ccc6c(ccc[n+]6C)c5)c5ccc2[nH]5)C=C4)C=C3)cc1`, for which the GI50 with U251 CNS was 28.8 µM; in the assay with UACC-62 melanoma, over 50 µM; in the assay on MALME-3M melanoma, over 50 µM; in the assay with SN12C renal, over 50 µM; in the assay on NCI/ADR-RES ovarian it was over 50 µM; with BT-549 breast it was 35.9 µM. Further, the GI50 is over 50 µM in the assay on SW-620 colon, 25.1 µM with HOP-92 NSCLC and 19.9 µM with UO-31 renal. For the same compound, the TGI with U251 CNS, in the assay with UACC-62 melanoma, with MALME-3M melanoma, in the assay on SN12C renal, in the assay with NCI/ADR-RES ovarian and in the assay with BT-549 breast was over 50 µM in each case. The TGI with SW-620 colon, with HOP-92 NSCLC and with UO-31 renal was over 50 µM each time.
Consider `COc1cc2c3c(c4c5ccccc5[nH]c4c2c(OC)c1OC)C(=O)N(CCN1CCCCC1)C3=O`, for which the GI50 in the assay with U251 CNS was 1.12 µM; with UACC-62 melanoma it was 3.88 µM; with MALME-3M melanoma it was 1.36 µM; with SN12C renal, 1.1 µM; in the assay with NCI/ADR-RES ovarian, 0.892 µM; in the assay with BT-549 breast it was 4.6 µM. The GI50 in the assay with SW-620 colon was 0.474 µM; with HOP-92 NSCLC, 1.3 µM; with UO-31 renal, 1.03 µM. In addition, the TGI in the assay on U251 CNS came out at 2.49 µM; in the assay with UACC-62 melanoma it was 9.12 µM; in the assay with MALME-3M melanoma, 2.85 µM; in the assay on SN12C renal, 2.54 µM; in the assay with NCI/ADR-RES ovarian, 3.19 µM; in the assay with BT-549 breast, 13.4 µM. The TGI with SW-620 colon came to 2.56 µM; in the assay on HOP-92 NSCLC, 5.21 µM; in the assay with UO-31 renal, 2.32 µM.
`C=C1C(=O)OC2/C=C(\C)C3OC3/C=C(/C(=O)OC)C(OC(C)=O)C(OC(=O)C(C)(O)C(C)OC(C)=O)C12` (stereo unspecified): the TGI in the assay on U251 CNS was 10.3 µM; in the assay on UACC-62 melanoma, 4.55 µM; in the assay on MALME-3M melanoma, 7.88 µM; with SN12C renal, 7.02 µM; in the assay with BT-549 breast, 2.37 µM; in the assay with SW-620 colon it was 2.25 µM. The TGI with HOP-92 NSCLC was found to be 4.1 µM; in the assay on UO-31 renal it was 15 µM.
Regarding `CC/C=C\C/C=C\C[C@H]1C/C=C2/C(=O)C=C[C@H]2C/C=C\CCC(=O)O1`, the GI50 is 3.06 µM in the assay with U251 CNS; 2.09 µM with UACC-62 melanoma; 2.85 µM in the assay with MALME-3M melanoma; 3.46 µM with SN12C renal; 4.7 µM in the assay on NCI/ADR-RES ovarian; 3.68 µM in the assay with BT-549 breast. The GI50 with SW-620 colon is 2.11 µM; with HOP-92 NSCLC, 2.72 µM; in the assay with UO-31 renal it was 2.23 µM. Also, the TGI in the assay on U251 CNS is 9.71 µM; in the assay with UACC-62 melanoma it was 5.47 µM; with MALME-3M melanoma, 8.8 µM; in the assay on SN12C renal it was 8.77 µM; in the assay with NCI/ADR-RES ovarian, over 14.3 µM; in the assay with BT-549 breast, 10.1 µM. Further, the TGI was determined as 5.52 µM in the assay with SW-620 colon, 8.01 µM with HOP-92 NSCLC and 4.96 µM in the assay with UO-31 renal.
Consider `COc1cc2c3c(n(CCCCl)c(=O)c2cc1OC)-c1ccc(C#N)cc1C3=O`, for which the GI50 with U251 CNS is 0.446 µM; in the assay on UACC-62 melanoma it was 6.81 µM; with MALME-3M melanoma, 2.49 µM; in the assay on SN12C renal, 22.7 µM; in the assay with NCI/ADR-RES ovarian, 22.4 µM; in the assay on BT-549 breast, 5.5 µM. The GI50 was 0.996 µM in the assay with SW-620 colon, 16.2 µM in the assay with HOP-92 NSCLC and 30.2 µM in the assay with UO-31 renal. For the same compound, the TGI with U251 CNS was 2.83 µM; in the assay with UACC-62 melanoma, 22.5 µM; in the assay with MALME-3M melanoma it was 74.4 µM; in the assay with SN12C renal, over 100 µM; with NCI/ADR-RES ovarian it was over 100 µM; in the assay on BT-549 breast it was 23.6 µM. Besides, the results for the TGI in the assay with SW-620 colon, with HOP-92 NSCLC and in the assay with UO-31 renal were over 100 µM, 56.8 µM and over 100 µM, respectively.
On to `COc1cc(-c2cc(CCC(=O)Nc3ccccc3[N+](=O)[O-])n(-c3ccc([N+](=O)[O-])cc3[N+](=O)[O-])n2)ccc1O`, for which the GI50 with U251 CNS is over 100 µM; with UACC-62 melanoma, over 10 µM; in the assay on MALME-3M melanoma, over 100 µM; with SN12C renal, over 100 µM; with SW-620 colon it was over 100 µM; in the assay on HOP-92 NSCLC, over 100 µM. Also, the GI50 with UO-31 renal was over 100 µM. Further, the TGI is over 100 µM with U251 CNS; over 100 µM in the assay with UACC-62 melanoma; over 10 µM in the assay with SR leukemia; over 100 µM in the assay on MALME-3M melanoma; over 100 µM with SN12C renal; over 100 µM in the assay with SW-620 colon. Besides, the TGI in the assay on HOP-92 NSCLC and with UO-31 renal was over 100 µM each time.
